Measurements from PubChem BioAssay AID2060616 (Molecular Pharmacology Branch, DTP, NCI, 2025).

System: 377384-186-R-J1-PDC complex spheroid viability
Experiment: Anticancer human tumor 377384-186-R-J1-PDC patient-derived pancreatic carcinoma cell line growth inhibition [CLK]
Conditions: for IC50: curve of first compound; for viability, T/C: stronger effect = lower value
Source text: A high-throughput screen of multi-cell type tumor spheroids was designed to identify active combinations of […] and targeted small molecules. Complex spheroids include a stromal component modeled by human endothelial cells (HUVEC) and fibroblasts modeled by human mesenchymal stem cells (MSCs). The concentration ranges selected for each drug and investigational agent were based upon clinically achievable concentrations if the clinical Cmax of the agent was known.
Compounds. The drugs and investigational agents: cirtuvivint (SM08502; NSC835563), CC-671 (NSC850746), vemurafenib (NSC761431), tapotoclax (NSC804041), sotorasib (NSC818433), adagrasib (NSC831453), MRTX-1133 (NSC836407), BAY2416964 (NSC825713), copanlisib (NSC816437), inavolisib (NSC800729), abemaciclib (NSC768073), osimertinib (NSC779217), entinostat (NSC756642), eltanexor (KPT-8602, NSC794443), venetoclax (NSC766270), ceralasertib (NSC777638), bortezomib (NSC756655), olaparib (NSC753686), talazoparib (NSC767125), alisertib (NSC759677), peposertib (NSC802822), gemcitabine (NSC613327), 5-fluorouracil (NSC19893), SN-38 (NSC673596), oxaliplatin (NSC266046), paclitaxel (NSC125973), and doxorubicin (NSC123127), were obtained from the National Cancer Institute (NCI) Developmental Therapeutics Program Chemical Repository. The FDA-approved anticancer drug set is available from the Developmental Therapeutics Program at https://dtp.cancer.gov/organization/dscb/obtaining/available plates.htm. […] The stock solutions were prepared in dimethyl sulfoxide (DMSO, Sigma-Aldrich, St. Louis, MO, cat. D2650), except for the platinum complexes which were prepared in saline (Quality Biological, Gaithersburg, MD, cat. 114-055-101), at 800-fold the tested concentration and stored at -70 degrees C prior to their use. All drugs and investigational agents were tested over a range starting from a high concentration at or near the clinical Cmax and decreasing in half-log increments. If the clinical Cmax for an agent had not been determined, the highest concentration tested was 10 microM.
Cell Culture. All cells were maintained in an incubator at 37 degrees C and 5% CO2 with 95% humidity. The PDC lines were cultured according to standard operating procedures established by the NCI PDMR. Briefly, all PDCs were thawed and cultured in Matrigel-coated flasks prepared with a working solution of 1X Ham's F-12 nutrient mix, without supplementation (Invitrogen, Waltham, MA, cat. 11765054), 100 U/mL penicillin-streptomycin (Invitrogen, cat. 15140122), and 2.5% Matrigel (Corning Inc., Corning, NY, cat. 354248) for the first three passages. The 947758-054-R-J2-PDC line was cultured in 6B/Colon 1A media, which includes advanced DMEM/F-12 (Thermo Fisher Scientific, cat. 12634028), 10 mM HEPES (Thermo Fisher Scientific, cat. 15630080), 1X GlutaMAX supplement (Thermo Fisher Scientific, cat. 35050061), 0.1 mg/mL primocin (InvivoGen, cat. ant-pm-2), 10% defined fetal bovine serum, heat inactivated (HyClone Laboratories Inc., cat. SH30070.03HI), 1.25 mM N-Acetyl-L-cysteine (Sigma-Aldrich, cat. A9165), 10 mM nicotinamide (Sigma-Aldrich, cat. N0636), 1X B-27 supplement (Thermo Fisher Scientific, cat. 17504044), 1X N-2 supplement (Thermo Fisher Scientific, cat. 17502048), and 10 microM Y-27632 dihydrochloride (Tocris Bioscience, cat. 1254). The 876862-298-R-J1-PDC was cultured in 6E media, which includes all 6B/Colon 1A media components plus 50% L-WRN conditioned media (ATCC, cat. CRL-3276), 50 ng/mL recombinant human EGF recombinant protein (hEGF; Thermo Fisher Scientific, cat. PHG0311), 10 ng/mL recombinant human fibroblast growth factor 10 (hGFG-10; PeproTech, cat. 100-26), 1 ng/mL recombinant human fibroblast growth factor 2 (hFGF-2; PeproTech, cat. 100-18B), and 1 µM prostaglandin E2 (PGE2; Tocris, cat. 2296). The 227483-062-R1-J1-PDC line was cultured in Panc media, containing all 6E components except hFGF-2, with the addition of 500 nM SB-431542 (Selleckchem, cat. S1067) and 10 nM gastrin (Tocris, cat. 3006). […]

[1] = second compound 0.0316 µM, first compound 0.0316 µM
[2] = second compound 0.0316 µM, first compound 0.1 µM
[3] = second compound 0.0316 µM, first compound 0.316 µM
[4] = second compound 0.0316 µM, first compound 1 µM
[5] = second compound 0.0316 µM, first compound 3.16 µM
[6] = second compound 0.0316 µM, first compound 10 µM
[7] = second compound 0.1 µM, first compound 0.0316 µM
[8] = second compound 0.1 µM, first compound 0.1 µM
[9] = second compound 0.1 µM, first compound 0.316 µM
[10] = second compound 0.1 µM, first compound 1 µM
[11] = second compound 0.1 µM, first compound 3.16 µM
[12] = second compound 0.1 µM, first compound 10 µM
[13] = second compound 0.316 µM, first compound 0.0316 µM
[14] = second compound 0.316 µM, first compound 0.1 µM
[15] = second compound 0.316 µM, first compound 0.316 µM
[16] = second compound 0.316 µM, first compound 1 µM
[17] = second compound 0.316 µM, first compound 3.16 µM
[18] = second compound 0.316 µM, first compound 10 µM
[19] = second compound 1 µM, first compound 0.0316 µM
[20] = second compound 1 µM, first compound 0.1 µM
[21] = second compound 1 µM, first compound 0.316 µM
[22] = second compound 1 µM, first compound 1 µM
[23] = second compound 1 µM, first compound 3.16 µM
[24] = second compound 1 µM, first compound 10 µM
[25] = second compound 3.16 µM, first compound 0.0316 µM
[26] = second compound 3.16 µM, first compound 0.1 µM
[27] = second compound 3.16 µM, first compound 0.316 µM
[28] = second compound 3.16 µM, first compound 1 µM
[29] = second compound 3.16 µM, first compound 3.16 µM
[30] = second compound 3.16 µM, first compound 10 µM
[31] = second compound 10 µM, first compound 0.0316 µM
[32] = second compound 10 µM, first compound 0.1 µM
[33] = second compound 10 µM, first compound 0.316 µM
[34] = second compound 10 µM, first compound 1 µM
[35] = second compound 10 µM, first compound 3.16 µM
[36] = second compound 10 µM, first compound 10 µM
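Further: spheroids exposed to agents for 7 days before reading.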
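Wherever viability, T/C is given: luminescence signal used as a stand-in for viable cells.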

CCCS(=O)(=O)Nc1ccc(F)c(C(=O)c2c[nH]c3ncc(-c4ccc(Cl)cc4)cc23)c1F + CN1CCN(c2cc(C(=O)Nc3cc4cc(-c5cnn(C)c5)ccc4cn3)ccn2)CC1
IC50 (second compound 0.0316 µM): > 10000 nM | IC50 (second compound 0.1 µM): 8850 nM | IC50 (second compound 0.316 µM): < 31.6 nM | IC50 (second compound 1 µM): < 31.6 nM | IC50 (second compound 3.16 µM): < 31.6 nM | IC50 (second compound 10 µM): < 31.6 nM | viability, T/C [1]: 122% | viability, T/C [2]: 122% | viability, T/C [3]: 141% | viability, T/C [4]: 140% | viability, T/C [5]: 117% | viability, T/C [6]: 64.8% | viability, T/C [7]: 117% | viability, T/C [8]: 78.5% | viability, T/C [9]: 135% | viability, T/C [10]: 121% | viability, T/C [11]: 97.1% | viability, T/C [12]: 44.4% | viability, T/C [13]: 34.8% | viability, T/C [14]: 21.6% | viability, T/C [15]: 31.2% | viability, T/C [16]: 33.4% | viability, T/C [17]: 28.9% | viability, T/C [18]: 15.4% | viability, T/C [19]: 1.07% | viability, T/C [20]: 3.44% | viability, T/C [21]: 1.53% | viability, T/C [22]: 1.74% | viability, T/C [23]: 1.66% | viability, T/C [24]: 1.39% | viability, T/C [25]: 0.5% | viability, T/C [26]: 0.57% | viability, T/C [27]: 1.26% | viability, T/C [28]: 0.82% | viability, T/C [29]: 0.51% | viability, T/C [30]: 0.48% | viability, T/C [31]: 0.54% | viability, T/C [32]: 0.62% | viability, T/C [33]: 0.58% | viability, T/C [34]: 0.68% | viability, T/C [35]: 0.66% | viability, T/C [36]: 0.26%

COC1C=CCC(C)C(C)S(=O)(=O)NC(=O)c2ccc3c(c2)N(CC2CCC21)CC1(CCCc2cc(Cl)ccc21)CO3 (centres undefined) + CN1CCN(c2cc(C(=O)Nc3cc4cc(-c5cnn(C)c5)ccc4cn3)ccn2)CC1
IC50 (second compound 0.0316 µM): 5480 nM | IC50 (second compound 0.1 µM): 4950 nM | IC50 (second compound 0.316 µM): < 31.6 nM | IC50 (second compound 1 µM): < 31.6 nM | IC50 (second compound 3.16 µM): < 31.6 nM | IC50 (second compound 10 µM): < 31.6 nM | viability, T/C [1]: 114% | viability, T/C [2]: 95.2% | viability, T/C [3]: 96.5% | viability, T/C [4]: 102% | viability, T/C [5]: 84.9% | viability, T/C [6]: 11.8% | viability, T/C [7]: 115% | viability, T/C [8]: 69.2% | viability, T/C [9]: 98% | viability, T/C [10]: 84.5% | viability, T/C [11]: 76.8% | viability, T/C [12]: 10.2% | viability, T/C [13]: 32.5% | viability, T/C [14]: 20.9% | viability, T/C [15]: 24.3% | viability, T/C [16]: 20% | viability, T/C [17]: 20.5% | viability, T/C [18]: 3.02% | viability, T/C [19]: 0.47% | viability, T/C [20]: 1.66% | viability, T/C [21]: 1.4% | viability, T/C [22]: 1.15% | viability, T/C [23]: 0.84% | viability, T/C [24]: 0.75% | viability, T/C [25]: 0.58% | viability, T/C [26]: 0.33% | viability, T/C [27]: 0.31% | viability, T/C [28]: 0.37% | viability, T/C [29]: 0.49% | viability, T/C [30]: 0.39% | viability, T/C [31]: 0.42% | viability, T/C [32]: 0.68% | viability, T/C [33]: 0.44% | viability, T/C [34]: 0.59% | viability, T/C [35]: 0.53% | viability, T/C [36]: 0.17%
